Results on seven compounds are retold here after ChEMBL document CHEMBL1770098, “Pyridine-derived thiosemicarbazones and their tin(IV) complexes with antifungal activity against Candida spp” (2011).

The structures appear in SMILES notation. Values after ≈ are worked out from the molar mass of the structure shown.

Common to all, as to type: functional
One assay deals with Pichia kudriavzevii. The experiment in a line: Antifungal activity against Candida krusei ATCC 200298 after 24 hrs. Conditions: ATCC 200298, 24 h.
A further assay deals with Candida albicans. Briefly: Antifungal activity against Candida albicans ATCC 18804 after 24 hrs. Conditions: ATCC 18804, 24 h.
The next assay has as its system Nakaseomyces glabratus. Briefly: Antifungal activity against Candida glabrata ATCC 90030 after 24 hrs. Conditions: ATCC 90030, 24 h.
For the next assay, the system named is Candida parapsilosis. The experiment in a line: Antifungal activity against Candida parapsilosis […] after 24 hrs. The following applies: Lodderomyces parapsilosis.

The MIC is the smallest concentration in the dilution series that meets the test's criterion for growth inhibition. Regarding `C/C(=N\NC(=S)Nc1ccccc1Cl)c1ccccn1`, the MIC in the assay on Pichia kudriavzevii was 13.1 µM (≈ 4 µg/mL); against Candida albicans it was 13.1 µM (≈ 4 µg/mL); in the assay with Nakaseomyces glabratus it was 13.1 µM (≈ 4 µg/mL); against Candida parapsilosis, 26.2 µM (≈ 8 µg/mL).

`C/C(=N\NC(=S)Nc1ccccc1[N+](=O)[O-])c1ccccn1`: the minimal inhibitory concentration (MIC) in the assay with Pichia kudriavzevii, against Candida albicans, against Nakaseomyces glabratus and in the assay with Candida parapsilosis was 6.34 µM (≈ 2 µg/mL) each time.

Consider `C/C(=N\NC(=S)Nc1ccccc1F)c1ccccn1`, for which the minimum inhibitory concentration (MIC) was 13.9 µM (≈ 4 µg/mL) in the assay with Pichia kudriavzevii, 13.9 µM (≈ 4 µg/mL) in the assay with Candida albicans, 6.94 µM (≈ 2 µg/mL) in the assay on Nakaseomyces glabratus and 27.7 µM (≈ 8 µg/mL) against Candida parapsilosis.

As for `S=C(N/N=C(\c1ccccc1)c1ccccn1)Nc1ccccc1Cl`, the MIC in the assay on Pichia kudriavzevii was 21.8 µM (≈ 8 µg/mL); against Candida albicans it was 21.8 µM (≈ 8 µg/mL); in the assay with Nakaseomyces glabratus, 21.8 µM (≈ 8 µg/mL); in the assay on Candida parapsilosis, 43.6 µM (≈ 16 µg/mL).

Regarding `Fc1ccccc1NC(=S)N/N=C(\c1ccccc1)c1ccccn1`, the MIC with Pichia kudriavzevii is 45.7 µM (≈ 16 µg/mL); against Candida albicans, 45.7 µM (≈ 16 µg/mL); in the assay on Nakaseomyces glabratus it was 11.4 µM (≈ 4 µg/mL); against Candida parapsilosis, 45.7 µM (≈ 16 µg/mL).

Turning to `O=[N+]([O-])c1ccccc1NC(=S)N/N=C(\c1ccccc1)c1ccccn1`, the minimum inhibitory concentration (MIC) with Pichia kudriavzevii was 21.2 µM (≈ 8 µg/mL); in the assay on Candida albicans, 21.2 µM (≈ 8 µg/mL); with Nakaseomyces glabratus it was 21.2 µM (≈ 8 µg/mL); in the assay with Candida parapsilosis, 42.4 µM (≈ 16 µg/mL).

For the compound `OC(Cn1cncn1)(Cn1cncn1)c1ccc(F)cc1F` [FLUCONAZOLE], the minimum inhibitory concentration (MIC) was 104 µM (≈ 32 µg/mL) in the assay with Pichia kudriavzevii, 6.53 µM (≈ 2 µg/mL) against Candida albicans, 6.53 µM (≈ 2 µg/mL) with Nakaseomyces glabratus and 6.53 µM (≈ 2 µg/mL) in the assay with Candida parapsilosis.
